Reference: patent US11866409B2, “Apoptosis related protein in the tgf-beta signaling pathway (ARTS) mimetic compounds, compositions, methods and uses thereof in induction of differentiation and/or apoptosis of premalignant and malignant cells, thereby restoring their normal-like phenotype” (CARMEL-HAIFA UNIVERSITY ECONOMIC CORPORATION LTD., priority 2015, dated 2024)

Tests used:
[1] = molecular target: T1, fluorescently labeled Bir3 (His-tagged) domain of XIAP, residues 252-350 (Homo sapiens, UniProt P98170); test: MicroScale Thermophoresis (MST) binding to Bir3 domain of XIAP; settings: 340 nM fl-labeled Bir3, pH 5.6, 2% DMSO, read-out: calculated Kd
T1 construct: His-tagged Bir3 (XIAP 252-350) was expressed and purified; made in house
Procedure: His-tagged Bir3 (XIAP 252-350) was expressed and purified as previously described (Reingewertz et al, 2011). The purified Bir3 was labeled with the Monolith NT™ Protein Labeling Kit RED according to the supplied labeling protocol.
(§1) 340 nM of fl-labeled Bir3 was titrated with A4 compound in 1:1 dilutions beginning at 500 μM, in a 25 mM Tri-Sodium acetate buffer pH 5.6, 2% DMSO and 0.05% Tween 20. The measurements were performed on a NanoTemper Monolith instrument.
(§2) To further characterize the A4 candidate, MicroScale Thermophoresis (MST) was used to evaluate the binding of the A4 compound to fluorescently labeled Bir3 (His-tagged) domain of XIAP, residues 252-350. […] Microscale thermophoresis (MST) is a technology for the interaction analysis of biomolecules. Microscale thermophoresis is the directed movement of particles in a microscopic temperature gradient. Any change of the hydration shell of biomolecules due to changes in their structure/conformation results in a relative change of the movement along the temperature gradient and is used to determine binding affinities. MST allows measurement of interactions directly in solution without the need of immobilization to a surface (immobilization-free technology).

[2] = molecular target: recombinant GST-tagged XIAP (Homo sapiens, UniProt P98170); test: MicroScale Thermophoresis (MST) binding to whole XIAP; settings: GST-tagged XIAP (FIG. 4D), read-out: calculated Kd
Procedure: as §1, §2
To further characterize the A4 candidate, the MSTtechnology described above was used to evaluate the binding of the A4 compound to recombinant GST-tagged XIAP, as presented in FIG. 4D.

Bcl-2 [3] = test: Western blot, A375 human melanoma cells; assay type: cell-based; settings: 20 μM, 24 hrs
Procedure: (§3) The cells were lysed in WCE (whole-cell extract) buffer [[…] Hepes, pH 7.7, 0.3M NaCl, 1.5 mM MgCl2, 0.2 mM EDTA, 0.1% Triton X-100, 100 μg/ml PMSF and protease inhibitor cocktail (Roche, 1:100 dilution)]. 100 μg of total cell protein, measured with the Bio-Rad Protein Assay kit, were separated by SDS-PAGE (12%) followed by transfer for 2 h on to a nitrocellulose membrane. The membrane was blocked with 5% (w/v) non-fat dried skimmed milk powder in PBS supplemented with 0.05% Tween20 (PBS-T) for 1 hour at room temperature (R.T). Membrane was then probed with primary antibody at 4° C. overnight. Next, the membrane was incubated with the appropriate HRP-conjugated secondary antibody, for 1 hour at R.T. and washed 15 min×3 with PBS-T. WesternBright ECL (Advansta) was added to the membrane for 2 min and analyzed using ImageQuant LAS-4000 analyzer (GE Healthcare Life Sciences) & “ImageQuant LAS-4000” software (GE Healthcare Life Sciences). Densitometry analysis was performed using ImageQuant total lab 7 (GE Healthcare Life Sciences), image analysis software.
(§4) The candidate molecules were next subjected to functional assays, examining their ability to induce apoptosis. Therefore, the expression of several apoptotic markers was examined in A375 human melanoma cells exposed to 20 μM of each of the candidate compounds. […] No effect on cCaspase or c-PARP was shown.

c-PARP = test: Western blot, A375 human melanoma cells; assay type: cell-based; settings: 20 μM, 24 hrs
Procedure: as §3, §4

cCaspase = test: Western blot, A375 human melanoma cells; assay type: cell-based; settings: 20 μM, 24 hrs
Procedure: as §3, §4

Bcl-2 [4] = test: Proteasome-mediated degradation study, T47D breast cancer cells; assay type: cell-based
Procedure: as §3
(§5) T47D breast cancer cells: 1*10^6 T47D cells were seeded on a 10 cm plate in RPMI and were propagated to 80% confluence. Cells were treated for 1 hour with either DMSO (control) or 30 μM A4 together with 20 μM MG-132 (proteasome inhibitor) or without MG-132. […]

Bcl-2 [5] = test: Proteasome-mediated degradation study, HeLa cervical cancer cells; assay type: cell-based
Procedure: as §3
(§6) HeLa cervical cancer cells: 1.5*10^6 HeLa cells were seeded on a 10 cm plate in DMEM and were propagated to 80% confluence. Cells were treated for 2 hour with either DMSO (control) or 30 μM A4 together with 20 μM MG-132 (proteasome inhibitor) or without MG-132. […]

[6] = tested on: M2 cells (MCF10AT1K, premalignant breast cells); test: Proliferation assay of M2 cells in 2D culture; assay type: cell-based, human; settings: 24 and 48 hours
Procedure: Human breast cancer cell lines MCF-10A (M1) was received from Prof. Israel Vlodavsky (Technion, Israel), MCF10AT1K (M2) and MCF10ACA1 h (M3) were received from Dr. Fred Miller (Barbara Ann Karmanos Cancer Institute). M1 and M2 cells were maintained in DMEM/F12 supplemented with 5% donor horse serum (DHS), 1% sodium pyrovate, 1% L-glutamine, 0.02 μg/ml epidermal growth factor (EGF; Peprotech), 0.01 mg/ml insulin (Sigma), 0.5 μg/ml hydrocortisone (Sigma), 0.1 μg/ml cholera toxin (Sigma) and 1% penicillin-streptomycin at 37° C., 5% CO2 incubator. M3 cells were maintained in DMEM/F12 supplemented with 5% DHS and 1% penicillin-streptomycin at 37° C. and incubated in 5% CO2 incubator.
The CellTiter 96 AqueousOne Solution of cell proliferation assay kit (Promega) was added to the wells for 2 hours to measure cell proliferation according the manufacturer's instructions. The absorbance was recorded at 490 nm.

M2 organoids = M2 organoids in 3D BME culture, polarization and lumen formation; assay type: cell-based, human
Procedure: Cells were harvested from their growth plates using 0.25% trypsin EDTA. Collected cells were cultured in Cultrex® growth factor reduced Basement Membrane Extract (BME: Trevigen, Inc) as follows: An 8 chamber glass slide system (Lab-TEK® II, Naperville, IL) was coated with 60 μl BME [Barkan D. et al., Cancer Research (2008)](protein concentration between 15 mg/ml; thickness˜1-2 mm). 5×10^3 cells per well were re-suspended in DMEM/F12 supplemented with 2.5% DHS and 2% BME and cultured on the coated slides. Slides were incubated at 37° C., 5% CO2 incubator. Cells were re-fed every 4 days. Cell morphology was monitored by light microscopy. Immunofluorescence images were captured by Nikon A1-R confocal laser scanning microscope (Haifa University, Haifa, Israel).
Laminin5 immunofluorescence staining: was performed as described by Barkan et al., [Cancer Research (2008)]. Briefly, cells cultured in 8 well chamber glass slides in 3D BME, as described above. The cultured cells were fixed and permeabalized for 5 minutes with 4% Paraformaldehyde (PFA) containing 5% sucrose and 0.2% Triton X-100, and re-fixed for an additional 25 minutes with 4% PFA containing 5% sucrose. The cells were washed for 10 minutes with PBS and an additional 10 minutes with PBS containing 0.05% Tween 20 (Sigma). Fixed cells were blocked with 3% BSA in PBS for 1 hour and incubated overnight at 4° C. with primary antibody (Rabbit polyclonal antibody to Laminin-5 (1:200)). The cells were washed three times with PBS for 15 minutes each, and incubated for 1 hour with […] conjugated to Alexa Fluor®647 (Invitrogen), washed as above and mounted with VECTASHIELD mounting medium with 4′,6-diamidino-2-phenylindole (DAPI). For F-actin staining cells were incubated over night with Alexa-Fluor®488 Phalloidin (1:40) (Molecular Probes) washed three times with PBS for 15 minutes each, and mounted with VECTASHIELD mounting medium with DAPI. The slides were imaged using Nikon A1-R confocal laser scanning microscope (Haifa University, Haifa, Israel). […]

[7] = tested on: 293 cells stably expressing Bcl-2 cherry reporter; test: Combination with BH3 mimetic in Bcl-2 cherry reporter cells; assay type: cell-based; settings: A4 combined with ABT199, 293 cells Bcl-2 cherry reporter
Procedure: pcDNA-3.1 vector carrying Bcl2 with an mCherry fusion c′ terminus fluorescent tag and neomycin (G418) resistance sequences was transfected into HEK 293T cells using Turbofect (Fermentas). Cells were then treated with G418, and resistant fluorescent cells were further sorted and isolated by FACS-sorter. Mono-clones of the stably expressing Bcl2-mCherry and G418 resistance were propagated and used for the experiments.

XIAP [8] = molecular target: T2, XIAP (Homo sapiens, UniProt P98170); test: Proteasome-mediated degradation study, T47D breast cancer cells; assay type: cell-based; parameters: endogenous in cells; host or cells: T47D breast cancer cells
Procedure: as §3, §5

XIAP [9] = molecular target: T2, XIAP; test: Western blot, A375 human melanoma cells; assay type: cell-based; parameters: endogenous in cells; host or cells: A375 human melanoma cells; settings: 20 μM, 24 hrs
Procedure: as §3, §4

XIAP [10] = molecular target: T2, XIAP; test: Proteasome-mediated degradation study, HeLa cervical cancer cells; assay type: cell-based; parameters: endogenous in cells; host or cells: HeLa cervical cancer cells
Procedure: as §3, §6

6myc-ARTS = test: Western blot, M2 cells transfected with 6myc-ARTS, caspase inhibition; assay type: cell-based, human
Procedure: (§7) The cells were transfected with either 6-MycTag-ARTS in pCS2 or sport-ARTS in pCMV plasmid, that was produced in Sarit Larisch lab as described previously (Larisch & Yi […]). For the transfection the Turbofect (Fermentas) was used with concentration of 0.1 μg/l DNA for 6-MycTag-ARTS and sport-ARTS plasmid.
as §3
(§8) The inventors next examined whether caspases mediate the cleavage of the N′-terminal part of ARTS. To this end, the inventors transfected M2 cells with 6myc-ARTS and cells were either untreated or treated with a pan inhibitor of all caspases, Q-VD. […] In contrast, no change in XIAP levels was shown (FIG. 7D).

Bcl-2 [11] = test: as above; assay type: cell-based, human
Procedure: as §7, §3, §8

XIAP [12] = test: as above; assay type: cell-based, human
Procedure: as §7, §3, §8

[13] = 30 μM A4 + 20 μM MG-132, 1 hour
[14] = 30 μM A4 + 20 μM MG-132, 2 hour

T2 sequence (P98170 whole entry): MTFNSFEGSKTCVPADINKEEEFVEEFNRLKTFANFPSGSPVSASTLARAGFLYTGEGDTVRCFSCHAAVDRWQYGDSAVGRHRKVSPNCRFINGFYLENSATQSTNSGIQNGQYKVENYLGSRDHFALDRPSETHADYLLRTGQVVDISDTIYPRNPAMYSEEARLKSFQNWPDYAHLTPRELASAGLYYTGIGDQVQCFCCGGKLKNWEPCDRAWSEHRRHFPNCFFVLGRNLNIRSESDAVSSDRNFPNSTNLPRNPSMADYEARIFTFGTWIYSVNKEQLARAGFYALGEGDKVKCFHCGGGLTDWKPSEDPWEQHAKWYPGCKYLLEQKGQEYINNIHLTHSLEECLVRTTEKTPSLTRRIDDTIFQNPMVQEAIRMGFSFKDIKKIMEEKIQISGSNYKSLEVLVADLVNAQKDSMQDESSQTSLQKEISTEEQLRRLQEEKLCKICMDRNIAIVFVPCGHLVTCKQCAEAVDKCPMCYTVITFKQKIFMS
Sequence of recombinant GST-tagged XIAP (P98170 whole entry): as above
T1 sequence (P98170 252-350): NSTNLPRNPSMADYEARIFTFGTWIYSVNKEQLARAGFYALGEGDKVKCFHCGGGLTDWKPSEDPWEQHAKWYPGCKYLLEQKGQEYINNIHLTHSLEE

COC(=O)c1[nH]c2ccc(Cl)cc2c1NC(=O)CN1CCN(Cc2ccccc2)CC1 [A4, methyl 5-chloro-3-[[2-[4-(phenylmethyl)piperazin-1-yl]acetyl]amino]-1H-indole-2-carboxylate]
Kd [1]: 46.1 ± 3.65 µM
Kd [2]: 34.6 ± 2.48 µM
levels of Bcl-2 (Bcl-2 [3]): clearly reduced
effect on c-PARP (c-PARP): No effect
effect on cCaspase (cCaspase): No effect
Bcl-2 levels with proteasome inhibitor (Bcl-2 [4]; [13]): restored
Bcl-2 levels (Bcl-2 [4]; 30 μM A4, 1 hour): decrease
Bcl-2 levels with proteasome inhibitor (Bcl-2 [5]; [14]): restored
Bcl-2 levels (Bcl-2 [5]; 30 μM A4, 2 hour): decrease
apoptotic cells [6]: only low amount of apoptotic cells
cell proliferation [6]: decrease in cell proliferation
apicobasal polarization (GM130, Laminin 5 staining) (M2 organoids; 40 μM, 7 days): initiation of apical staining of GM130 and basal staining of Laminin 5
organoid phenotype (M2 organoids; 40 uM, 14 days): conversion thereof to a normal-like phenotype
polarization and lumen formation (M2 organoids; 40 uM, 14 days): apicobasal polarization of M2 organoids followed by luminal formation
effect of combination with BH3 mimetic [7]: synergetic effect
XIAP levels with proteasome inhibitor (XIAP [8]; [13]): restored
XIAP levels (XIAP [8]; 30 μM A4, 1 hour): specific decrease
levels of XIAP (XIAP [9]): clearly reduced
XIAP levels with proteasome inhibitor (XIAP [10]; [14]): restored
XIAP levels (XIAP [10]; 30 μM A4, 2 hour): specific decrease

CC(C)[C@H](NC(=O)c1ccc2ccccc2n1)C(=O)N[C@@H](CC(=O)O)C(=O)COc1c(F)cccc1F [Q-VD]
cleaved 6-myc ARTS (6myc-ARTS): decrease
uncleaved 6myc-ARTS (6myc-ARTS): increase
Bcl-2 levels (Bcl-2 [11]): significantly increased
XIAP levels (XIAP [12]): no change
